# Data from ChEMBL document CHEMBL5537205, “Discovery of D25, a Potent and Selective MNK Inhibitor for Sepsis-Associated Acute Spleen Injury” (J Med Chem, 2024).
# The source made the active and inactive calls. The rule behind the calls is not given here.
# What was measured:
# Mus musculus [1] = assay: Antiinflammatory activity in LPS-induced BALB/c sepsis mouse model assessed as increase in SOD level in serum at 20 mg/kg, po preadministered with compound for 14 days followed by LPS stimulation and measured after 6 hrs; type: functional, organism-based; settings: time 342.0 hrs
# RAW264.7 [2] = assay: Antiinflammatory activity against mouse RAW264.7 cells assessed as inhibition of LPS-NO production at 20 uM by Griess reagent based assay relative to control; type: functional
# Mus musculus [3] = assay: Antiinflammatory activity in LPS-induced BALB/c sepsis mouse model assessed as reversal of LPS-induced spleen […] index at 20 mg/kg, po preadministered with compound for 14 days followed by LPS stimulation and measured after 6 hrs; type: functional, organism-based; settings: time 342.0 hrs
# [4] = target: T1, MAP kinase-interacting serine/threonine-protein kinase 1 (Homo sapiens, UniProt Q9BUB5); assay: Inhibition of MNK1 (unknown origin) at 1 uM relative to control
# Target sequence in this assay (Q9BUB5 whole entry, looked up): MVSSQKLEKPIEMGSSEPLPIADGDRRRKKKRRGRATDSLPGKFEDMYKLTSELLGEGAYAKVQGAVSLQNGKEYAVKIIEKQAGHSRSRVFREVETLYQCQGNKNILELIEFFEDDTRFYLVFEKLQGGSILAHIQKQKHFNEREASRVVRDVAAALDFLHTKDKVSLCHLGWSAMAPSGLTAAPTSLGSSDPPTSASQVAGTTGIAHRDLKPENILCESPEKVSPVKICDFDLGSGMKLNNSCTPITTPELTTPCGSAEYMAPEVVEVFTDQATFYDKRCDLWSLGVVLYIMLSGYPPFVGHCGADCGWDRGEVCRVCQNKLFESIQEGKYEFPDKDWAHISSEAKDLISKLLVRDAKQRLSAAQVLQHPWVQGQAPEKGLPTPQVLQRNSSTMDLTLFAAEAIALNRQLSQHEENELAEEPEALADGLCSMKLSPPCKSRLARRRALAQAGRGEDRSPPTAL
# Mus musculus [5] = assay: Antiinflammatory activity in LPS-induced BALB/c sepsis mouse model assessed as decrease in serum TNF-alpha level at 20 mg/kg, po preadministered with compound for 14 days followed by LPS stimulation and measured after 6 hrs by ELISA; type: functional, organism-based; settings: time 342.0 hrs
# Mus musculus [6] = assay: Antiinflammatory activity in LPS-induced BALB/c sepsis mouse model assessed as decrease in serum ALT level at 10 to 20 mg/kg, po preadministered with compound for 14 days followed by LPS stimulation and measured after 6 hrs; type: functional, organism-based; settings: dose 10-20 mg/kg, time 342.0 hrs
# [7] = Cmax in Sprague-Dawley rat at 5 mg/kg, iv measured after 48 hrs; type: ADME, organism-based; settings: in vivo
# RAW264.7 [8] = assay: Antiinflammatory activity against LPS-induced mouse RAW264.7 cells assessed as decrease in iNOS expression at 10 to 20 uM by Western blot analysis; type: functional, cell-based; settings: dose 10-20 µM
# [9] = Half-life in Sprague-Dawley rat at 20 mg/kg, po measured after 48 hrs; type: ADME, organism-based; settings: in vivo
# Mus musculus [10] = assay: Antiinflammatory activity in LPS-induced BALB/c sepsis mouse model assessed as decrease in serum BUN level at 10 to 20 mg/kg, po preadministered with compound for 14 days followed by LPS stimulation and measured after 6 hrs; type: functional, organism-based; settings: dose 10-20 mg/kg, time 342.0 hrs
# Mus musculus [11] = assay: Antiinflammatory activity in LPS-induced BALB/c sepsis mouse model assessed as reversal of LPS-induced kidney renal index at 20 mg/kg, po preadministered with compound for 14 days followed by LPS stimulation and measured after 6 hrs; type: functional, organism-based; settings: time 342.0 hrs
# Mus musculus [12] = assay: Antiinflammatory activity in LPS-induced BALB/c sepsis mouse model assessed as decrease in volume of spleen nucleus at 10 to 20 mg/kg, po preadministered with compound for 14 days followed by LPS stimulation and measured after 6 hrs by H&E staining based analysis; type: functional, organism-based; settings: dose 10-20 mg/kg, time 342.0 hrs
# [13] = Cmax in Sprague-Dawley rat at 20 mg/kg, po measured after 48 hrs; type: ADME, organism-based; settings: in vivo
# Mus musculus [14] = assay: Antiinflammatory activity in LPS-induced BALB/c sepsis mouse model assessed as decrease in COX-2 level in spleen at 10 to 20 mg/kg, po preadministered with compound for 14 days followed by LPS stimulation and measured after 6 hrs by Western blot analysis; type: functional, organism-based; settings: dose 10-20 mg/kg, time 342.0 hrs
# Mus musculus [15] = assay: Antiinflammatory activity in LPS-induced BALB/c sepsis mouse model assessed as increase in GSH level in serum at 20 mg/kg, po preadministered with compound for 14 days followed by LPS stimulation and measured after 6 hrs; type: functional, organism-based; settings: time 342.0 hrs
# [16] = Oral bioavailability in Sprague-Dawley rat at 20 mg/kg measured after 48 hrs; type: ADME, organism-based; settings: in vivo
# [17] = target: MAP kinase-interacting serine/threonine-protein kinase 2 (Homo sapiens, UniProt Q9HBH9); assay: Inhibition of MNK2 (unknown origin) at 1 uM relative to control
# Sequence of MAP kinase-interacting serine/threonine-protein kinase 2 (Q9HBH9 whole entry, looked up): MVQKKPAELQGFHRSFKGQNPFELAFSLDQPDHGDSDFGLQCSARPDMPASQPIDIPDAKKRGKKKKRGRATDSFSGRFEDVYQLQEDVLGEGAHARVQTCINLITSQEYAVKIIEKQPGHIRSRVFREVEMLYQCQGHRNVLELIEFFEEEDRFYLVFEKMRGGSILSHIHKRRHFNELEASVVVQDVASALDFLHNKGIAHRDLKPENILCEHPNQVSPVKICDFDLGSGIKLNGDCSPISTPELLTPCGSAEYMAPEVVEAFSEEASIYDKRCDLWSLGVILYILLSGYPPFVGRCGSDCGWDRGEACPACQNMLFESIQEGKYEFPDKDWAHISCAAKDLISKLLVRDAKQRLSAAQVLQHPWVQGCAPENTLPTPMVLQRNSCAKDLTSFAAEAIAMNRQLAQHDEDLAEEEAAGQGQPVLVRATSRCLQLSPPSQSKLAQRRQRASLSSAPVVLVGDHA
# Mus musculus [18] = assay: Antiinflammatory activity in LPS-induced BALB/c sepsis mouse model assessed as decrease in iNOS level in spleen at 10 to 20 mg/kg, po preadministered with compound for 14 days followed by LPS stimulation and measured after 6 hrs by Western blot analysis; type: functional, organism-based; settings: dose 10-20 mg/kg, time 342.0 hrs
# Mus musculus [19] = assay: Antiinflammatory activity in LPS-induced BALB/c sepsis mouse model assessed as reversal of LPS-induced liver […] index at 20 mg/kg, po preadministered with compound for 14 days followed by LPS stimulation and measured after 6 hrs; type: functional, organism-based; settings: time 342.0 hrs
# RAW264.7 [20] = assay: Antiinflammatory activity against LPS-induced mouse RAW264.7 cells assessed as inhibition of phosphorylated eIF4E expression preincubated for 1 hrs followed by LPS stimulation and measured after 1 hrs by DAPI staining based immunofluorescence analysis; type: functional, cell-based; settings: dose 5-20 µM, time 2.0 hrs
# RAW264.7 [21] = assay: Antiinflammatory activity against LPS-induced mouse RAW264.7 cells assessed as decrease in IL-6 expression at 10 to 20 uM by Western blot analysis; type: functional, cell-based; settings: dose 10-20 µM
# Mus musculus [22] = assay: Antiinflammatory activity in LPS-induced BALB/c sepsis mouse model assessed as decrease in infiltration of macrophages in spleen at 10 to 20 mg/kg, po preadministered with compound for 14 days followed by LPS stimulation and measured after 6 hrs by immunohistochemistry analysis; type: functional, organism-based; settings: dose 10-20 mg/kg, time 342.0 hrs
# Mus musculus [23] = assay: Antiinflammatory activity in LPS-induced BALB/c sepsis mouse model assessed as decrease in serum IL-6 level at 20 mg/kg, po preadministered with compound for 14 days followed by LPS stimulation and measured after 6 hrs by ELISA; type: functional, organism-based; settings: time 342.0 hrs
# [24] = AUC (0 to t) in Sprague-Dawley rat at 5 mg/kg, iv measured after 48 hrs; type: ADME, organism-based; settings: in vivo
# RAW264.7 [25] = assay: Antiinflammatory activity in LPS-induced mouse RAW264.7 cells assessed as reduction in ROS level at 5 to 20 uM pretreated with compound followed by LPS stimulation and measured after 1 hrs by flow cytometric analysis; type: functional, cell-based; settings: dose 5-20 µM
# Mus musculus [26] = assay: Antiinflammatory activity in LPS-induced BALB/c sepsis mouse model assessed as reversal of LPS-induced lung […] index at 20 mg/kg, po preadministered with compound for 14 days followed by LPS stimulation and measured after 6 hrs; type: functional, organism-based; settings: time 342.0 hrs
# MV4-11 = assay: Antiproliferative activity against human MV4-11 cells assessed as inhibition of cell proliferation at 20 uM incubated for 48 hrs by CCK8 assay relative to control; type: functional
# Mus musculus [27] = assay: Antiinflammatory activity in LPS-induced BALB/c sepsis mouse model assessed as decrease in cell gap in spleen at 10 to 20 mg/kg, po preadministered with compound for 14 days followed by LPS stimulation and measured after 6 hrs by H&E staining based analysis; type: functional, organism-based; settings: dose 10-20 mg/kg, time 342.0 hrs
# [28] = target: T1, MAP kinase-interacting serine/threonine-protein kinase 1; assay: Inhibition of MNK1 (unknown origin) incubated for 60 mins in presence of ATP by HTRF assay
# Target sequence in this assay (Q9BUB5 whole entry): as the sequence (Q9BUB5 whole entry, looked up) above
# RAW264.7 [29] = assay: Antiinflammatory activity against LPS-induced mouse RAW264.7 cells assessed as decrease in phosphorylated eIF4E expression at 10 to 20 uM by Western blot analysis; type: functional, cell-based; settings: dose 10-20 µM
# Mus musculus [30] = assay: Antiinflammatory activity in LPS-induced BALB/c sepsis mouse model assessed as decrease in MDA level in serum at 20 mg/kg, po preadministered with compound for 14 days followed by LPS stimulation and measured after 6 hrs; type: functional, organism-based; settings: time 342.0 hrs
# RAW264.7 [31] = assay: Antiinflammatory activity against LPS-induced mouse RAW264.7 cells assessed as decrease in COX-2 expression at 10 to 20 uM by Western blot analysis; type: functional, cell-based; settings: dose 10-20 µM
compound,measurement,setting,value
c1cc(-c2cc(C3CCNCC3)n[nH]2)c2cc[nH]c2n1,Activity,Mus musculus [1],Active
same,inhibition at 20 µM,RAW264.7 [2],70%
same,Activity,Mus musculus [3],Active
same,inhibition,[4],88.3%
same,Activity,Mus musculus [5],Active
same,Activity,Mus musculus [6],Active
same,Cmax,[7],3580 ng/mL
same,Activity,RAW264.7 [8],Active
same,half-life,[9],200 min
same,Activity,Mus musculus [10],Active
same,Activity,Mus musculus [11],Active
same,Activity,Mus musculus [12],Active
same,Cmax,[13],26.2 ng/mL
same,Activity,Mus musculus [14],Active
same,Activity,Mus musculus [15],Active
same,F,[16],1.16%
same,inhibition,[17],85.8%
same,Activity,Mus musculus [18],Active
same,Activity,Mus musculus [19],Active
same,Activity,RAW264.7 [20],Dose-Dependent Effect
same,Activity,RAW264.7 [21],Active
same,Activity,Mus musculus [22],Active
same,Activity,Mus musculus [23],Active
same,AUCt,[24],1618 ng·h/mL
same,Activity,RAW264.7 [25],Active
same,Activity,Mus musculus [26],Active
same,inhibition at 20 µM,MV4-11,98.5%
same,Activity,Mus musculus [27],Active
same,IC50,[28],121 nM
same,Activity,RAW264.7 [29],Active
same,Activity,Mus musculus [30],Active
same,Activity,RAW264.7 [31],Active
